Laboratory results reported in patent US20230365571A1, “COMPOUNDS AND COMPOSITIONS AS Sppl2a INHIBITORS” (Novartis AG, priority 2020, published 2023).

Key:
Assay type in all cases: cell-based
human SPPL2a [1] = target: T1, human SPPL2a (Homo sapiens, UniProt Q8TCT8); test: Sppl2a RGA (reporter gene assay) in HEK293 cells; parameters: expressed in transfected cells; host or cells: HEK293 (transient); settings: NT-TNF-VP16-Gal4 substrate, Gal4-luciferase reporter, 24 h
T1 sequence (Q8TCT8 26-520): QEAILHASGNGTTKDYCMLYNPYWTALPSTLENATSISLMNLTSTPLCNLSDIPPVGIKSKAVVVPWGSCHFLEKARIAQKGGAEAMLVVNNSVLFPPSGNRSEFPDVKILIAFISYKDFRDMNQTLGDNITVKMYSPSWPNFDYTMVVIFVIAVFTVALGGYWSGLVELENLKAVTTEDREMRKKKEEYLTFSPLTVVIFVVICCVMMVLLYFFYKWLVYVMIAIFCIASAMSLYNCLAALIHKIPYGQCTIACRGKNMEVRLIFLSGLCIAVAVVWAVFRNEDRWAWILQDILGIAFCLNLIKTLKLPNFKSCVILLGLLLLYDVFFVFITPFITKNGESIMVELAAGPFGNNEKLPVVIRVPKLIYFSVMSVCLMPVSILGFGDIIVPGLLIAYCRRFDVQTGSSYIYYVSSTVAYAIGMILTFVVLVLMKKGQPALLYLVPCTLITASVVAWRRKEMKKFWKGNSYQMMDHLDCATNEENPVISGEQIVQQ
Summary of the method: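 HEK293 cells transiently co-transfected with human SPPL2a, NT-TNF-VP16-Gal4 substrate and Gal4-luciferase reporter, compound added within 5 h. After 24 h at 37 °C, luciferase luminescence measured; IC50 from concentration versus normalized luminescence.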

human SPPL2a [2] = target: T1, human SPPL2a; test: Sppl2a TL (translocation) imaging assay in U-2 OS cells; parameters: expressed in transfected cells; settings: U-2 OS cells expressing human SPPL2a and EGFP-TNFα(aa1-76) NTF substrate; 24 h
Summary of the method: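 U-2 OS cells stably expressing human SPPL2a plus doxycycline-induced EGFP-TNFα(aa1-76) NTF, treated 24 h at 37 °C with inhibitor (100 μM–1 nM, 11 points, 0.9% DMSO, 5 μg/mL doxycycline). Imaging of nuclear-minus-cytoplasmic EGFP intensity; % inhibition versus 0.5 μM LY-411,575 and DMSO, IC50 by nonlinear regression; CC50 from cell count.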

Sppl2a CD74 = target: T2, Sppl2a CD74 (Mus musculus, UniProt Q9JJF9); test: CD74/p8 mouse whole blood assay, flow cytometry format; settings: Balb/c mouse whole blood, 5 h, CD74 signal on gated live B cells
T2 construct: Mouse whole blood Balb/c mice (sodium citrate) was ordered by Bioreclamation LLC; tissue Bioreclamation LLC
T2 sequence (Q9JJF9 26-523): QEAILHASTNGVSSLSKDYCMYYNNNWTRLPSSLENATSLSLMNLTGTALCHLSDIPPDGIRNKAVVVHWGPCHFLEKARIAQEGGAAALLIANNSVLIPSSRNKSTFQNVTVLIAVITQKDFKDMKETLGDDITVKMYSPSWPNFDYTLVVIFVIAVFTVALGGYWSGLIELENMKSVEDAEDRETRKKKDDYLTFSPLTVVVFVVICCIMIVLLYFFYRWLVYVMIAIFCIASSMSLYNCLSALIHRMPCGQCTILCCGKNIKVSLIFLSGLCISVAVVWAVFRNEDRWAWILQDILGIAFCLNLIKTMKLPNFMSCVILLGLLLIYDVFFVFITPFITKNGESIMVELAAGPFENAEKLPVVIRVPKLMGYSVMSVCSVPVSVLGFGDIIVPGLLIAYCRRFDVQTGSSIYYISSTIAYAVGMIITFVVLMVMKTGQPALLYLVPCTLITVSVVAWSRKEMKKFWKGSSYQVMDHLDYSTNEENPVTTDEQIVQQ
Protocol: CD74/p8 Mouse Whole Blood Assay: Flow Cytometry Format
Mouse whole blood Balb/c mice (sodium citrate) was ordered by Bioreclamation LLC; USA. The blood was used the next day upon receipt (stored at 4° C.). 100 μL blood were transferred in 96 well format plate, where compounds, an 11 point dilutions down from 30 μM, to be tested were previously deposited. The plate was incubated for 5 h in the incubator at 37° C., 5% CO2 under continuous motion. After the incubation the blood was diluted with RBC Lysis Buffer (Amined; Cat. Nr 3-13F00-H or BD; Cat. Nr 555899). The solution was mixed by pipetting and incubated 10 min in the 37° C. incubator. The white blood cells were sedimented for 3 min at 2000 rpm. After removing the supernatant the cell pellet was resuspended and washed twice in RCB Buffer and kept≈ 5 min at room temperature, followed by a centrifugation for 2 min at 2000 rpm. The cell pellet was then resuspend in D-PBS and centrifuged twice. Finally, the cells were taken up in of D-PBS/0.5% inactivated fetal bovine serum/2 mM EDTA. The cell suspension was treated with Live/Dead fixable stain (Life Technologies, >470 nm version), B cells were identified by surface staining with an anti-B220 antibody coupled to APC fluorofor. After staining, the cells were extensively washed with PBS. The cells were permeabilized and fixed in FACS lysing buffer; (BD; #349202, dil 1:10 in water) and labelled with an anti CD74, FITC labelled antibody, washed once more with diluted FACS lysing buffer and spin down. The cell pellet was washed with D-PBS/0.5% inactivated fetal bovine serum/2 mM EDTA and PBS prior to the analysis in a flow cytometer. The compound concentrations were plotted against the intensity (medium fluorescence intensity) of the CD74 signal on the gated life B cell and IC50 were determined by fitting data for a 11 concentrations dose response.

Work on `CC[C@H](CNC(=O)c1sc(C(=O)NCC(F)F)nc1C)C(=O)N[C@@H]1C(=O)N2CCCN2Cc2ccccc21` [Example 8, N^2-(2,2-Difluoroethyl)-4-methyl-N^5-((R)-2-(((S)-11-oxo-2,3,10,11-tetrahydro-1H,5H-benzo[d]pyrazolo [1,2-a][1,2]diazepin-10-yl)carbamoyl)butyl) thiazole-2,5-dicarboxamide] yielded an IC50 (human SPPL2a [1]) of 4 nM, an IC50 (human SPPL2a [2]) of 3 nM and an IC50 (Sppl2a CD74) of 2430 nM.

`CCn1nc(-c2cc(C)no2)cc1NC(=O)C[C@@H](C)C(=O)N[C@@H]1C(=O)N2CCCN2Cc2ccccc21` [Example 101, (R)-N^4-(1-Ethyl-3-(3-methylisoxazol-5-yl)-1H-pyrazol-5-yl)-2-methyl-N^1-((S)-11-oxo-2,3,10,11-tetrahydro-1H,5H-benzo[d]pyrazolo [1,2-a][1,2]diazepin-10-yl)succinamide] showed an IC50 (human SPPL2a [1]) of 7 nM, an IC50 (human SPPL2a [2]) of 15 nM and an IC50 (Sppl2a CD74) of 473 nM.

In the case of `C[C@H](CC(=O)Nc1cc(C(=O)NCC(F)(F)F)nn1C)C(=O)N[C@@H]1C(=O)N2CCCN2Cc2ccccc21` [Example 68, (R)-2-methyl-N^4-(1-methyl-3-((2,2,2-trifluoroethyl)car-bamoyl)-1H-pyrazol-5-yl)-N^1-((S)-11-oxo-2,3,10,11-tetrahydro-1H,5H-benzo[d]pyrazolo [1,2-a][1,2]diazepin-10-yl)succinamide], the IC50 (human SPPL2a [1]) is reported as 34 nM, the IC50 (human SPPL2a [2]) is reported as 3 nM and the IC50 (Sppl2a CD74) is reported as 329 nM.

For `CCNC(=O)c1nc(C)c(C(=O)NC[C@@H](CC)C(=O)N[C@@H]2C(=O)N3CCCN3Cc3ccccc32)s1` [Example 10, N^2-Ethyl-4-methyl-N^5-((R)-2-(((S)-11-oxo-2,3,10,11-tetrahydro-1H,5H-benzo[d]pyrazolo [1,2-a][1,2]diazepin-10-yl)carbamoyl)butyl) thiazole-2,5-dicarboxamide], the IC50 (human SPPL2a [1]) was 5 nM, the IC50 (human SPPL2a [2]) was 4 nM and the IC50 (Sppl2a CD74) was 289 nM.

Molecule `Cc1nc(C(=O)NC(C)C)sc1C(=O)NC[C@H](C(=O)N[C@@H]1C(=O)N2CCCN2Cc2ccccc21)C1CC1` [Example 27, N^5-((R)-2-Cyclopropyl-3-oxo-3-(((S)-11-oxo-2,3,10,11-tetrahydro-1H,5H-benzo[d]pyrazolo [1,2-a][1,2]diazepin-10-yl)amino)propyl)-N^2-isopropyl-4-methylthiazole-2,5-dicarboxamide] has an IC50 (human SPPL2a [1]) of 5 nM, an IC50 (human SPPL2a [2]) of 26 nM and an IC50 (Sppl2a CD74) of 947 nM.

Molecule `CC[C@H](CNC(=O)c1sc(-c2ccno2)nc1C)C(=O)N[C@@H]1C(=O)N2CCCN2Cc2ccccc21` [Example 32, 2-(Isoxazol-5-yl)-4-methyl-N-((R)-2-(((S)-11-oxo-2,3,10,11-tetrahydro-1H,5H-benzo[d]pyrazolo [1,2-a][1,2]diazepin-10-yl)carbamoyl)butyl) thiazole-5-carboxamide] has an IC50 (human SPPL2a [1]) of 10 nM, an IC50 (human SPPL2a [2]) of 37 nM and an IC50 (Sppl2a CD74) of 174 nM.

With `C[C@@H](CF)NC(=O)c1cc(NC(=O)C[C@H](C(=O)N[C@@H]2C(=O)N3CCCN3Cc3c(F)cccc32)C2CC2)n(C)n1` [Example 100, (S)-2-Cyclopropyl-N^1-((S)-6-fluoro-11-oxo-2,3,10,11-tetrahydro-1H,5H-benzo[d]pyrazolo [1,2-a][1,2]diazepin-10-yl)-N^4-(3-(((S)-1-fluoropropan-2-yl)carbamoyl)-1-methyl-1H-pyrazol-5-yl)succinamide] the IC50 (human SPPL2a [1]) was 28 nM, the IC50 (human SPPL2a [2]) was 15 nM and the IC50 (Sppl2a CD74) was 272 nM.

`CC[C@H](CNC(=O)c1sc(C(=O)NC)nc1C)C(=O)N[C@@H]1C(=O)N2CCCN2Cc2ccccc21` [Example 13, N^2,4-Dimethyl-N^5-((R)-2-(((S)-11-oxo-2,3,10,11-tetrahydro-1H,5H-benzo[d]pyrazolo [1,2-a][1,2]diazepin-10-yl)carbamoyl)butyl) thiazole-2,5-dicarboxamide] showed an IC50 (human SPPL2a [1]) of 8 nM, an IC50 (human SPPL2a [2]) of 6 nM and an IC50 (Sppl2a CD74) of 161 nM.

Work on `CC(C)NC(=O)c1cc(NC(=O)C[C@H](C(=O)N[C@@H]2C(=O)N3CCCN3Cc3c(F)cccc32)C2CC2)n(C)n1` [Example 77, (S)-2-Cyclopropyl-N^1-((S)-6-fluoro-11-oxo-2,3,10,11-tetrahydro-1H,5H-benzo[d]pyrazolo [1,2-a][1,2]diazepin-10-yl)-N^4-(3-(isopropylcarba-moyl)-1-methyl-1H-pyrazol-5-yl)succinamide] yielded an IC50 (human SPPL2a [1]) of 5 nM, an IC50 (human SPPL2a [2]) of 6 nM and an IC50 (Sppl2a CD74) of 250 nM.

With `Cc1nc(C(=O)NC(C)C)sc1NC(=O)C[C@@H](C)C(=O)N[C@@H]1C(=O)N2CCCN2Cc2ccccc21` [Example 66, (R)-N^4-(2-(Isopropylcarba-moyl)-4-methylthiazol-5-yl)-2-methyl-N^1-((S)-11-oxo-2,3,10,11-tetrahydro-1H,5H-benzo[d]pyrazolo [1,2-a][1,2]diazepin-10-yl)succinamide] the IC50 (human SPPL2a [1]) was 2 nM, the IC50 (human SPPL2a [2]) was 2 nM and the IC50 (Sppl2a CD74) was 136 nM.

`CCn1nc(-c2ccco2)cc1NC(=O)C[C@@H](C)C(=O)N[C@@H]1C(=O)N2CCCN2Cc2ccccc21` [Example 85, (R)-N^4-(1-Ethyl-3-(furan-2-yl)-1H-pyrazol-5-yl)-2-methyl-N^1-((S)-11-oxo-2,3,10,11-tetrahydro-1H,5H-benzo[d]pyrazolo [1,2-a][1,2]diazepin-10-yl)succinamide] gave an IC50 (human SPPL2a [1]) of 22 nM, an IC50 (human SPPL2a [2]) of 10 nM and an IC50 (Sppl2a CD74) of 203 nM.

`CC[C@H](CNC(=O)c1sc(C2=CCOCC2)nc1C)C(=O)N[C@@H]1C(=O)N2CCCN2Cc2ccccc21` [Example 26, 2-(3,6-Dihydro-2H-pyran-4-yl)-4-methyl-N-((R)-2-(((S)-11-oxo-2,3,10,11-tetrahydro-1H,5H-benzo[d]pyrazolo [1,2-a][1,2]diazepin-10-yl)carbamoyl)butyl) thiazole-5-carboxamide] was tested, and the IC50 (human SPPL2a [1]) was 101 nM, the IC50 (human SPPL2a [2]) was 25 nM and the IC50 (Sppl2a CD74) was 2230 nM.

Work on `C[C@H](CC(=O)Nc1cc(NC(=O)c2cccc(F)c2F)nn1C)C(=O)N[C@@H]1C(=O)N2CCCN2Cc2ccccc21` [Example 76, (R)-N^4-(3-(2,3-Difluorobenzamido)-1-methyl-1 H-pyrazol-5-yl)-2-methyl-N^1-((S)-11-oxo-2,3,10,11-tetrahydro-1H,5H-benzo[d]pyrazolo [1,2-a][1,2]diazepin-10-yl)succinamide] yielded an IC50 (human SPPL2a [1]) of 7 nM, an IC50 (human SPPL2a [2]) of 5 nM and an IC50 (Sppl2a CD74) of 1690 nM.

`CCc1nnsc1C(=O)NC[C@@H](CC)C(=O)N[C@@H]1C(=O)N2CC3(CC3)CN2C(=O)c2ccccc21` [Example 36, N-((R)-2-(((S)-5,11-Dioxo-10,11-dihydro-1H,3H,5H-spiro[benzo[d]pyr-azolo[1,2-a][1,2]diazepine-2,1′-cyclopropan]-10-yl)carbamoyl)butyl)-4-ethyl-1,2,3-thiadiazole-5-carboxamide] showed an IC50 (human SPPL2a [1]) of 34 nM and an IC50 (human SPPL2a [2]) of 45 nM.
